We go through 29 compounds from US4845122A, “Anti-allergy treatment using 2-(substituted amino)-4,5-dihydro-4-oxo-3-furancarboxylic acids and derivatives thereof” (priority 1986, dated 1989).

SMILES strings stand for the structures.

What all share (type): in vivo
For one assay, the system named is edema. Nature of the assay: rat active anaphylaxis model (paw edema after bovine serum albumin challenge). To be noted: 100 mg/kg intraperitoneally; for Active Anaphylaxis % Inhibition: 1 h before challenge, paw volume 90 min post challenge. As to the method:
In the rat active anaphylaxis model, groups consisting of 15-20 male rats are intraperitoneally sensitized on day zero with 500 ug of bovine serum albumin-absorbed alum admixed with 2×10^10 killed Bordatella pertussis vaccine organisms. […] The paw volume is measured using a mercury plethysmometer prior to drug administration and 90 minutes post antigenic challenge. The percent inhibition of edema is calculated as the difference in volume between the control and drug treated groups divided by the control volume times 100. The positive control drug, theophylline (90 mg/kg, po) is included in each assay. Statistical analysis of the data is done using the poolt program.

In assay [1] the test system is histamine. Nature of the assay: rat dermal vascular permeability test (mediator release model), histamine challenge. Conditions: 100 mg/kg, histamine 20 ug/ml intradermal. The method, then: The furanone compounds listed in Tables 1A, 1B and 2 were used for anti-allergy treatment in the rat active anaphylaxis model and/or the rat dermal vascular permeability test (mediator release model). The results are given as the percent inhibition from the control.
In the rat dermal vascular permeability test, groups of ten male rats are intraperitoneally or perorally administered either the test compound, at a dosage of 100 mg/kg of rat weight as a 0.85% solution in saline, or the positive reference standard cyproheptadine (1 mg/kg) one hour prior to an intravenous injection of 1 ml of a 0.5% solution of Evan's blue dye into naive animals. Ten minutes later the animals are challenged by intradermally injecting 0.1 ml of a solution of either serotonin (1 ug/ml), histamine (20 ug/ml) or bradykinin (10 ug/ml) into separate sites on the back. Five minutes following challenge the animals are killed, the skin retracted, and the mean diameter of the blue wheal and flare reactions are determined. The percent inhibition of the wheal reaction is calculated as the difference in diameter between the saline control and drug treated groups divided by the control diameter times 100. Statistical analysis of the data is done using the poolt program.

For the next assay, the system named is serotonin. Nature of the assay: rat dermal vascular permeability test (mediator release model), serotonin challenge. Conditions: 100 mg/kg.
Another assay deals with bradykinin. Nature of the assay: rat dermal vascular permeability test (mediator release model), bradykinin challenge. To be noted: 100 mg/kg.
The test system of assay [2] is histamine. Nature of the assay: rat dermal vascular permeability test (mediator release model), histamine challenge. To be noted: topical, 100 mg/kg.
[3] abbreviates: intraperitoneal administration, serotonin 1 ug/ml intradermal.
Where [4] appears, read: intraperitoneal administration, bradykinin 10 ug/ml intradermal.
[5] abbreviates: peroral, serotonin 1 ug/ml intradermal.

In the case of `CCOC(=O)C1=C(O)COC1=Nc1ccccc1` [K C6 H5 C2 H5, Potassium 2,5-dihydro-3-ethoxycarbonyl-2-(phenylimino)-4-furanyloxide], in the assay on edema, the “Active Anaphylaxis % Inhibition” value is on record as 49%. Further, the “% Inhibition of Mediator Release, Histamine” value (shortened to “% Inhibition … Histamine”) with histamine [1] (intraperitoneal administration) came out at 31%. Also, the “% Inhibition of Mediator Release, Serotonin” value (“% Inhibition … Serotonin” below) with serotonin (setting [3]) was found to be 42%. Moreover, in the assay with bradykinin (setting [4]), the “% Inhibition of Mediator Release, Bradykinin” value (from here on “% Inhibition … Bradykinin”) is 51%.

Turning to `O=C(O)C1=C(Nc2cccc([N+](=O)[O-])c2)OCC1=O` [OH H H C6 H4 NO2 --3], in the assay with edema (edema increased), the “Active Anaphylaxis % Inhibition (footnote 1: edema increased)” value is listed as 39%. Also, the “% Inhibition … Histamine” value in the assay with histamine [1] (peroral) amounted to 16%. In the assay on serotonin (setting [5]), the “% Inhibition … Serotonin” value amounted to 18%. Moreover, the “% Inhibition … Bradykinin” value in the assay on bradykinin (topical) was determined as 48%.

Turning to `CCOC(=O)C1=C(Nc2ccc(Cl)cc2)OCC1=O` [OC2 H5 H H C6 H4 Cl--4], the “% Inhibition … Histamine” value in the assay on histamine [1] (peroral) came out at 3.3%. Besides, the “% Inhibition … Serotonin” value with serotonin (setting [5]) is 6.6%. For the same compound, in the assay with bradykinin (topical), the “% Inhibition … Bradykinin” value came out at 9.5%.

As to `CCOC(=O)C1=C(Nc2cccc(C(F)(F)F)c2)OCC1=O` [OC2 H5 H H C6 H4 CF3 --3], the “% Inhibition … Histamine” value in the assay on histamine [1] (peroral) amounted to 4.1%. The “% Inhibition … Serotonin” value with serotonin (setting [5]) came to 9.7%. The “% Inhibition … Bradykinin” value in the assay on bradykinin (topical) came out at 40%.

Take `O=C(O)C1=C(Nc2cccc(C(F)(F)F)c2)OCC1=O` [OH H H C6 H4 CF3 --3]: in the assay with edema, the “Active Anaphylaxis % Inhibition” value was found to be 45%. Moreover, the “% Inhibition … Histamine” value in the assay with histamine [1] (peroral) is recorded as 26%. Besides, the “% Inhibition … Serotonin” value in the assay with serotonin (setting [5]) is listed as 40%. In addition, in the assay with bradykinin (topical), the “% Inhibition … Bradykinin” value worked out at 54%.

Turning to `COc1ccc(NC(=O)C2=C(Nc3ccc(OC)cc3)OCC2=O)cc1` [NH6 H4 OCH3 4 H H C6 H4 OCH3 4], the “% Inhibition … Histamine” value with histamine [2] is 8%. For the same compound, the “% Inhibition … Serotonin” value in the assay on serotonin (topical) is 13%. The “% Inhibition … Bradykinin” value in the assay on bradykinin (topical) is given as 39%.

Consider `O=C([O-])C1=C(Nc2ccccc2)OCC1=O.[Na+]` [O^- Na^+ H H C6 H5, 4,5-dihydro-4-oxo-2-phenylamino-3-furancarboxylic acid sodium salt], for which the “Active Anaphylaxis % Inhibition” value with edema is recorded as 17%.

With `CC1OC(Nc2ccccc2)=C(C(=O)O)C1=O` (stereo not drawn) [OH H CH3 C6 H5], the “Active Anaphylaxis % Inhibition” value in the assay on edema turned out to be 60%. The “% Inhibition … Histamine” value in the assay on histamine [1] (intraperitoneal administration) is given as 40%. Further, the “% Inhibition … Serotonin” value in the assay with serotonin (setting [3]) turned out to be 37%. For the same compound, the “% Inhibition … Bradykinin” value in the assay on bradykinin (setting [4]) came out at 46%.

On to `CC1(C)OC(Nc2ccccc2)=C(C(=O)O)C1=O` [OH CH3 CH3 C6 H5], for which the “Active Anaphylaxis % Inhibition” value with edema worked out at 44%.

As for `CCOC(=O)C1=C(Nc2ccccc2)OC(C)(C)C1=O` [OC2 H5 CH3 CH3 C6 H5, ethyl 4,5-dihydro-5,5-dimethyl-4-oxo-2-(phenylamino)-3-furancarboxylate], the “Active Anaphylaxis % Inhibition” value in the assay on edema was found to be 16%.

`CCOC(=O)C1=C(O)COC1=Nc1cccc([N+](=O)[O-])c1` [K C6 H4 NO2 --3 C2 H5]: the “Active Anaphylaxis % Inhibition” value in the assay on edema was 37%. The “% Inhibition … Histamine” value in the assay on histamine [1] (intraperitoneal administration) is reported as 49%. For the same compound, in the assay with serotonin (setting [3]), the “% Inhibition … Serotonin” value was 45%. For the same compound, the “% Inhibition … Bradykinin” value with bradykinin (setting [4]) is 67%.

Take `CCOC(=O)C1=C(Nc2ccc(C(=O)OCC)cc2)OCC1=O` [OC2 H5 H H C6 H4 CO2 C2 H5 --4, ethyl 2-[[4-(ethoxycarbonyl)phenyl]-amino]-4,5-dihydro-4-oxo-3-furancarboxylate]: the “% Inhibition … Histamine” value with histamine [1] (peroral) is 21%. Also, the “% Inhibition … Serotonin” value in the assay with serotonin (setting [5]) was 18%. Moreover, the “% Inhibition … Bradykinin” value in the assay with bradykinin (topical) was 21%.

Regarding `O=C(O)C1=C(N[C@@H]2C[C@H]2c2ccccc2)OCC1=O` (relative stereo), the “Active Anaphylaxis % Inhibition” value in the assay with edema is 22%.

With `CCOC(=O)C1=C(O)COC1=Nc1ccccc1OC` [K C6 H4 OCH3 --2 C2 H5], the “Active Anaphylaxis % Inhibition” value in the assay on edema was 58%.

Consider `O=C1COC(Nc2ccccc2)=C1C(=O)Nc1ccccc1` [NHC6 H5 H H C6 H5, 4,5-Dihydro-4-oxo-N-phenyl-2-(phenylamino)-3-furancarboxamide], for which the “Active Anaphylaxis % Inhibition” value in the assay with edema was 46%.

As to `O=C(O)C1=C(Nc2ccc(C(=O)O)cc2)OCC1=O` [OH H H C6 H4 CO2 H--4, 2-[(4-Carboxyphenyl)amino]-4,5-dihydro-4-oxo-3-furancarboxylic Acid], the “Active Anaphylaxis % Inhibition” value in the assay on edema is 52%. Moreover, the “% Inhibition … Histamine” value in the assay on histamine [1] (peroral) was 64%. Also, the “% Inhibition … Serotonin” value in the assay on serotonin (setting [5]) is 63%. The “% Inhibition … Bradykinin” value in the assay with bradykinin (topical) worked out at 64%.

As for `CCOC(=O)C1=C(O)COC1=Nc1ccc(C(C)=O)cc1` [K C6 H4 COCH3 --4 C2 H5], in the assay with edema, the “Active Anaphylaxis % Inhibition” value came to 56%. Also, in the assay with histamine [1] (intraperitoneal administration), the “% Inhibition … Histamine” value is 88%. In the assay on serotonin (setting [3]), the “% Inhibition … Serotonin” value stood at 79%. Further, the “% Inhibition … Bradykinin” value in the assay with bradykinin (setting [4]) was 86%.

As to `CCOC(=O)C1=C(O)COC1=Nc1ccc(Br)cc1` [K C6 H4 Br--4 C2 H5], in the assay on edema, the “Active Anaphylaxis % Inhibition” value is listed as 38%. For the same compound, the “% Inhibition … Histamine” value in the assay with histamine [1] (intraperitoneal administration) was found to be 65%. Also, the “% Inhibition … Serotonin” value in the assay on serotonin (setting [3]) stood at 46%. In addition, the “% Inhibition … Bradykinin” value with bradykinin (setting [4]) is listed as 69%.

With `COc1ccccc1NC1=C(C(=O)O)C(=O)CO1` [OH H H C6 H4 OCH3 --2], in the assay on edema, the “Active Anaphylaxis % Inhibition” value is listed as 45%. The “% Inhibition … Histamine” value with histamine [1] (peroral) came out at 27%. In the assay on serotonin (setting [5]), the “% Inhibition … Serotonin” value is reported as 30%. For the same compound, the “% Inhibition … Bradykinin” value in the assay with bradykinin (topical) is 38%.

Take `Cc1ccccc1NC(=O)C1=C(Nc2ccccc2C)OCC1=O` [NHC6 H4 CH3 2 H H C6 H4 CH3 2]: the “% Inhibition … Histamine” value in the assay with histamine [1] (peroral) worked out at 0%. The “% Inhibition … Serotonin” value with serotonin (setting [5]) turned out to be 9%. For the same compound, the “% Inhibition … Bradykinin” value in the assay with bradykinin (topical) is recorded as 7%.

On to `CCOC(=O)C1=C(O)COC1=Nc1cccc(C)c1` [K C6 H4 CH3 --3 C2 H5], for which, in the assay with histamine [1] (intraperitoneal administration), the “% Inhibition … Histamine” value was 71%. Besides, in the assay on serotonin (setting [3]), the “% Inhibition … Serotonin” value came out at 75%. Besides, the “% Inhibition … Bradykinin” value in the assay with bradykinin (setting [4]) was determined as 70%.

Take `COc1ccccc1NC(=O)C1=C(Nc2ccccc2OC)OCC1=O` [NHC6 H4 OCH3 2 H H C6 H4 OCH3 2]: in the assay with histamine [1] (peroral), the “% Inhibition … Histamine” value was 1%. In the assay with serotonin (setting [5]), the “% Inhibition … Serotonin” value came to 18%. In addition, the “% Inhibition … Bradykinin” value in the assay on bradykinin (topical) was 39%.

For `CCOC(=O)C1=C(NC)OCC1=O` [OC2 H5 H H CH3], the “% Inhibition … Histamine” value in the assay with histamine [1] (intraperitoneal administration) was determined as 50%. Moreover, the “% Inhibition … Serotonin” value in the assay with serotonin (setting [3]) worked out at 38%. For the same compound, the “% Inhibition … Bradykinin” value with bradykinin (setting [4]) stood at 25%.

In the case of `O=C(O)C1=C(N[C@@H]2C[C@H]2c2ccc(Cl)cc2)OCC1=O` (relative stereo), the “Active Anaphylaxis % Inhibition” value with edema is 6%. Further, in the assay on histamine [1] (peroral), the “% Inhibition … Histamine” value stood at 56%. Further, the “% Inhibition … Serotonin” value in the assay with serotonin (setting [5]) was 54%. The “% Inhibition … Bradykinin” value with bradykinin (topical) is listed as 71%.

For `O=C1COC(Nc2ccc(Cl)cc2)=C1C(=O)Nc1ccc(Cl)cc1` [NHC6 H4 Cl4 H H C6 H4 Cl4], in the assay with histamine [1] (peroral), the “% Inhibition … Histamine” value was determined as 15%. Also, the “% Inhibition … Serotonin” value with serotonin (setting [5]) turned out to be 14%. Further, the “% Inhibition … Bradykinin” value with bradykinin (topical) stood at 44%.

`O=C(O)C1=C(Nc2ccc(Br)cc2)OCC1=O` [OH H H C6 H4 Br--4]: in the assay with edema, the “Active Anaphylaxis % Inhibition” value was determined as 27%. Further, in the assay with histamine [1] (peroral), the “% Inhibition … Histamine” value worked out at 45%. Moreover, the “% Inhibition … Serotonin” value in the assay on serotonin (setting [5]) amounted to 39%. Also, the “% Inhibition … Bradykinin” value in the assay with bradykinin (topical) came to 68%.

As for `Cc1ccc([C@@H]2C[C@H]2NC2=C(C(=O)O)C(=O)CO2)cc1` (relative stereo), the “Active Anaphylaxis % Inhibition” value in the assay on edema worked out at 45%. Further, in the assay on histamine [1] (peroral), the “% Inhibition … Histamine” value is reported as 100%. Besides, the “% Inhibition … Serotonin” value with serotonin (setting [5]) is listed as 100%. Further, the “% Inhibition … Bradykinin” value in the assay with bradykinin (topical) is reported as 100%.

Turning to `CCOC(=O)C1=C(N[C@@H]2C[C@H]2c2ccc(Cl)cc2)OCC1=O` (relative stereo), in the assay with histamine [1] (peroral), the “% Inhibition … Histamine” value is given as 60%. Moreover, in the assay with serotonin (setting [5]), the “% Inhibition … Serotonin” value amounted to 51%. Also, in the assay with bradykinin (topical), the “% Inhibition … Bradykinin” value is 76%.

`CCOC(=O)C1=C(N[C@@H]2C[C@H]2c2ccccc2)OCC1=O` (relative stereo): in the assay with histamine [1] (peroral), the “% Inhibition … Histamine” value was 35%. In addition, the “% Inhibition … Serotonin” value with serotonin (setting [5]) is on record as 57%. The “% Inhibition … Bradykinin” value with bradykinin (topical) was 59%.
